# ChEMBL document CHEMBL1149992 (Bioorg Med Chem Lett, 1997)
# Target: Butyrylcholinesterase (Rattus norvegicus, UniProt Q9JKC1)
# Sequence (Q9JKC1 whole entry): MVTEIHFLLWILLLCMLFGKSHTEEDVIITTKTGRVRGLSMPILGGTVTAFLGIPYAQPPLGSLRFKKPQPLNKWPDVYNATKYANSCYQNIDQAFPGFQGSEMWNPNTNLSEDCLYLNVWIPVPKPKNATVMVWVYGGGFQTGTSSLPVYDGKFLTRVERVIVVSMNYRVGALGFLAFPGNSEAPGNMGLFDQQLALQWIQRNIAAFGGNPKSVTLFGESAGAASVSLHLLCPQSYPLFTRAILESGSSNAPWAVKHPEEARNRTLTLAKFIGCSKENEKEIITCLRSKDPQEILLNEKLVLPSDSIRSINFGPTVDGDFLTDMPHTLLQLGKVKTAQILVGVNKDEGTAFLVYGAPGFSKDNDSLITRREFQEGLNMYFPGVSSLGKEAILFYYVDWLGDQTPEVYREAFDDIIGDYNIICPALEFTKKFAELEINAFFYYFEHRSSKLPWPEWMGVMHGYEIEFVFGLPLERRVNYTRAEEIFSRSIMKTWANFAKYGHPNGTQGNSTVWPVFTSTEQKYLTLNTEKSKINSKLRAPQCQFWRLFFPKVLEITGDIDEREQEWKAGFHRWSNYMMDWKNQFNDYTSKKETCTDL
# Description: Compound was tested in vitro for inhibitory activity against Butyrylcholinesterase
row,SMILES,IC50 [µM]
1,Nc1c2c(nc3ccccc13)-c1ccccc1CC2,1.18
2,Nc1c2c(nc3ccccc13)-c1ccccc1CS2,4.9
3,Nc1c2c(nc3ccccc13)-c1ccccc1C2,4.67
4,Nc1cc(-c2ccccc2)nc2ccccc12,12
5,Nc1c2c(nc3ccccc13)-c1ccccc1CO2,6.58

# Target: T1, Acetylcholinesterase (Rattus norvegicus, UniProt P37136)
# T1 sequence (P37136 whole entry): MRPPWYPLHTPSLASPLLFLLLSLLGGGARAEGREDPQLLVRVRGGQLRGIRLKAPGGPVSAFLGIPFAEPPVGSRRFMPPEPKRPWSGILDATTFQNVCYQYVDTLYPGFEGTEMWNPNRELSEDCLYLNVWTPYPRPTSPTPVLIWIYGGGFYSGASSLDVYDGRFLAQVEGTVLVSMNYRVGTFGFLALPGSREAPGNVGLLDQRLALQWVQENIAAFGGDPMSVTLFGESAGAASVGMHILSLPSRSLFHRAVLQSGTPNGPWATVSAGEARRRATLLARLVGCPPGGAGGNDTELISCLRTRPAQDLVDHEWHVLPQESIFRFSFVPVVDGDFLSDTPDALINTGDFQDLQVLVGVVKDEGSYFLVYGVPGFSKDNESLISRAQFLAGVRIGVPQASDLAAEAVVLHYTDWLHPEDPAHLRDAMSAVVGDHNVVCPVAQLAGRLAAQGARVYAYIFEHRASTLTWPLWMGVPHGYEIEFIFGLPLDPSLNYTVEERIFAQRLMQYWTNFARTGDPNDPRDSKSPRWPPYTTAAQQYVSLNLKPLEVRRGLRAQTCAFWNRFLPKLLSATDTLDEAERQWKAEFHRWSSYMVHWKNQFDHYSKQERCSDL
# Description: Compound was tested in vitro for inhibitory activity against Acetylcholinesterase in rat cortex
row,SMILES,IC50 [µM]
1,Nc1c2c(nc3ccccc13)-c1ccccc1CC2,4
2,Nc1c2c(nc3ccccc13)-c1ccccc1CS2,> 100
3,Nc1c2c(nc3ccccc13)-c1ccccc1C2,0.48
4,Nc1cc(-c2ccccc2)nc2ccccc12,> 100
5,Nc1c2c(nc3ccccc13)-c1ccccc1CO2,> 100

# Target: T2, Acetylcholinesterase (Homo sapiens, UniProt P22303)
# Test: In vitro selectivity towards Acetylcholinesterase relative to compound 1
# T2 sequence (P22303 whole entry): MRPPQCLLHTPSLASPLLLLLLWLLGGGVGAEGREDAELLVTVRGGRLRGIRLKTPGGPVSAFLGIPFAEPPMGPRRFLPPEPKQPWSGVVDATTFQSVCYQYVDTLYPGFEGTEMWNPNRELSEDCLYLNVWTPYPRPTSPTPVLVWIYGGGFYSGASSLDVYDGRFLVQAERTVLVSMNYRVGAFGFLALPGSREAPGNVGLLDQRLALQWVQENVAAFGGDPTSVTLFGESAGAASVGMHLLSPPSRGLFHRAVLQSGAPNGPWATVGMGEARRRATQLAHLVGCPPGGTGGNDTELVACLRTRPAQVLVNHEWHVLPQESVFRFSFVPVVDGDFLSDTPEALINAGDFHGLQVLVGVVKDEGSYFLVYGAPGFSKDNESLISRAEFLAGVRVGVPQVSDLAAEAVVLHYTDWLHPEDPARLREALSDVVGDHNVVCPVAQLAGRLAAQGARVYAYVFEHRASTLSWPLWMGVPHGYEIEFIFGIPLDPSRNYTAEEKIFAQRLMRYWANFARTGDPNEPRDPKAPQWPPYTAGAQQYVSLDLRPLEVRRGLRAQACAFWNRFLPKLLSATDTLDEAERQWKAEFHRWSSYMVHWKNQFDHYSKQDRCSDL
row,SMILES,Relative Selectivity
1,Nc1c2c(nc3ccccc13)-c1ccccc1CC2,1.83
2,Nc1c2c(nc3ccccc13)-c1ccccc1CS2,1.22
3,Nc1c2c(nc3ccccc13)-c1ccccc1C2,32.1
4,Nc1cc(-c2ccccc2)nc2ccccc12,4.86
5,Nc1c2c(nc3ccccc13)-c1ccccc1CO2,0.13

# Target: T2, Acetylcholinesterase
# Description: Compound was tested in vitro for inhibitory activity against Acetylcholinesterase
row,SMILES,IC50 [µM]
1,Nc1c2c(nc3ccccc13)-c1ccccc1CC2,2.98
2,Nc1c2c(nc3ccccc13)-c1ccccc1CS2,18.6
3,Nc1c2c(nc3ccccc13)-c1ccccc1C2,0.676
4,Nc1cc(-c2ccccc2)nc2ccccc12,11.5
5,Nc1c2c(nc3ccccc13)-c1ccccc1CO2,245
